The values below come from patent US20040023961A1, “Aryl ureas with raf kinase and angiogenisis inhibiting activity” (BAYER CORPORATION, priority 2002, published 2004).

The subject of test [1] is neovascularization of the joint. The following applies: rat collagen arthritis model; Peacock et al. 1992; cited from earlier work.
The next test has as its target Flk-1 (Mus musculus, UniProt P35918). As to the kind of experiment: In Vitro Flk-1 ELISA Assay. It counts as biochemical, murine. The following applies: poly-Glu-Tyr coated plates, 3.3 μM ATP. As for the experimental part: In Vitro Flk-1 ELISA Assay
The Flk-1 ELISA assay was performed on 96-well Costar 9018 high-binding plates coated overnight with poly-Glu-Tyr (Sigma #P 0275). After coating, plates were washed with 20 mM HEPES pH=7.5, 150 mM NaCl, 0.1% Tween-20. These plates were then blocked with Blocking Buffer (20 mM HEPES pH=7.5, 150 mM NaCl, 1% BSA, 0.1% Tween-20) for 1 hr at room temperature on a plate shaker. After washing, the reaction was prepared using 20 mM HEPES pH=7.5, 100 mM KCl, 10 mM MgCl2, 3 mM MnCl2 0.05% glycerol, 0.005% Triton X-100, 1 mM BME and 3.3 μM ATP. The assay was initiated with Flk-1 giving a final enzyme concentration of 50 ng/well.
The reaction was incubated at room temperature for 1 hr on a plate shaker and was stopped by washing the plate. The primary antibody incubation step was for 1 hour at room temperature using PT66 phosphotyrosine antibody (Sigma 1:5000 dilution). After washing, the plate was then incubated (1 hr room temp) with the secondary antibody solution of anti-mouse HRP-conjugated antibody (Amersham 1:5000 dilution). After another wash step, plates were developed using 100 μL TMB substrate solution (KPL) and then quenched with KPL stop solution. These quenched plates were read at 450 nm on a Molecular Devices spectrophotomer plate reader. For IC50 generation, compounds were added prior to the enzyme initiation. […]
On the technique in general: ELISA stands for enzyme-linked immunosorbent assay.

Each structure is given as a SMILES string.

Sequence of Flk-1 (P35918 20-1345): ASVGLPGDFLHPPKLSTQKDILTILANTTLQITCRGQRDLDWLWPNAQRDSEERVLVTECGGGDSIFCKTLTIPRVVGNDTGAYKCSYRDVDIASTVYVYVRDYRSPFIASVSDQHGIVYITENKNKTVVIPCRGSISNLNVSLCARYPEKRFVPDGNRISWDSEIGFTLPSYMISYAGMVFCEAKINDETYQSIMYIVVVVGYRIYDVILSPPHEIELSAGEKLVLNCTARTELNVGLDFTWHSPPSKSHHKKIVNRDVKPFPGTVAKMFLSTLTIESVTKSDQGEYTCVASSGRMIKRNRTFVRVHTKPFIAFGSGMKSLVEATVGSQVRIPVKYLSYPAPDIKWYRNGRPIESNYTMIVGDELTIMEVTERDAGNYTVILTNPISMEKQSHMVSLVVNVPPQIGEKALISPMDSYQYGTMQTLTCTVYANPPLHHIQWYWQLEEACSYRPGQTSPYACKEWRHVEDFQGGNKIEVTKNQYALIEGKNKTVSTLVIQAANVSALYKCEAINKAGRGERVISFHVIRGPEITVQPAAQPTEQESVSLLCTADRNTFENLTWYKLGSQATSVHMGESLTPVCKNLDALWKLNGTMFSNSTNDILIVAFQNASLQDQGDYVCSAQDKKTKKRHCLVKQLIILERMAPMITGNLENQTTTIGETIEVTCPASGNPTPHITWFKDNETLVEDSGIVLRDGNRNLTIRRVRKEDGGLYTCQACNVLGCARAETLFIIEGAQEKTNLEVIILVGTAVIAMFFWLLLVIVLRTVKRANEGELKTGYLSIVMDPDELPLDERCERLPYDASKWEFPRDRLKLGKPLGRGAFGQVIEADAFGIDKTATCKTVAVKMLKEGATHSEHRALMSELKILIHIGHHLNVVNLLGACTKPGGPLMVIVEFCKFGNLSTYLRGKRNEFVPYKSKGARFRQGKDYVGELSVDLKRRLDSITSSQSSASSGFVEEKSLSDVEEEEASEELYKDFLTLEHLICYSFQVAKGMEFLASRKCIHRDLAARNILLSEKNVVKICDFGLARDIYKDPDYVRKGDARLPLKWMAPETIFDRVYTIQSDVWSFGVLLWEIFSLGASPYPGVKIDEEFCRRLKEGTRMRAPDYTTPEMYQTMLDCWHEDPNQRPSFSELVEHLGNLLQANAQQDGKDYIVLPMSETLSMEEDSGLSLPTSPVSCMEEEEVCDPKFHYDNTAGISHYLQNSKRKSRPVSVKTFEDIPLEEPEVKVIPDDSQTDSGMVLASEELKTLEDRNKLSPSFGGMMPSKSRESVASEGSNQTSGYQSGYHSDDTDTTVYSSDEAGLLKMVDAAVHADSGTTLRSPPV

For the compound `CO[C@@H]1[C@H](OC(=O)NC(=O)CCl)CC[C@]2(CO2)[C@H]1[C@@]1(C)O[C@@H]1CC=C(C)C` [AGM-170], the “neovascularization of the joint” value in test [1] was “prevent neovascularization of the joint”.
Regarding `Cc1ccc(-n2nc(C(C)(C)C)cc2NC(=O)Nc2ccc(OCCN3CCOCC3)c3ccccc23)cc1` [{[3-(tert-butyl)-1-(4-methylphenyl)pyrazol-5-yl]amino}-N-[4-(2-morpholin-4-ylethoxy)naphthyl]carboxamide], the half-inhibitory concentration (IC50) against Flk-1 was less than 1 µM.

What is called IC50 is the concentration at which inhibition is half-maximal.
